The values that follow come from ChEMBL document CHEMBL5537152, “Targeted Degradation of PCSK9 In Vivo by Autophagy-Tethering Compounds” (J Med Chem, 2024).

Test [1] concerns Mus musculus. Put plainly: Antiatherosclerotic activity in hypercholesterolemic ApoE-/- mouse model assessed as accumulation of cholesterol in liver at 5 to 15 mg/kg/day, ip measured after 21 days. It counts as functional, organism-based. As to conditions: dose 5-15 mg/kg/day, time 21.0 day.
The test system of test [2] is Mus musculus. The test can be described thus: Antiatherosclerotic activity in hypercholesterolemic ApoE-/- mouse model assessed as decrease in TG accumulation in liver at 5 to 15 mg/kg/day, ip measured after 21 days. It counts as functional, organism-based. As to conditions: dose 5-15 mg/kg/day, time 21.0 day.
Test [3] concerns Mus musculus. The test can be described thus: Antiatherosclerotic activity in hypercholesterolemic ApoE-/- mouse model assessed as decrease in oxidative stress in liver at 5 to 15 mg/kg/day, ip measured after 21 days. It counts as functional, organism-based. As to conditions: dose 5-15 mg/kg/day, time 21.0 day.
Test [4] has as its system Mus musculus. Put plainly: Antiatherosclerotic activity in hypercholesterolemic ApoE-/- mouse model assessed as decrease in liver damage at 5 to 15 mg/kg/day, ip measured after 21 days. It counts as functional, organism-based. As to conditions: dose 5-15 mg/kg/day, time 21.0 day.
For test [5], the system named is Mus musculus. The test can be described thus: Antiatherosclerotic activity in hypercholesterolemic ApoE-/- mouse model assessed as decrease in plaque area in aortic arch at 5 to 15 mg/kg/day, ip measured after 21 days by Aortic oil red O staining based analysis. It counts as functional, organism-based. As to conditions: dose 5-15 mg/kg/day, time 21.0 day.
For test [6], the system named is Mus musculus. The test can be described thus: Synergistic antiatherosclerotic activity in hypercholesterolemic ApoE-/- mouse model assessed as decrease in plasma LDL-C level at 15 mg/kg, ip administered daily for 3 weeks in presence of SIMV. It counts as functional. Also on record: scale not given: the % may be the effect or the level left.
In test [7] the test system is Mus musculus. The test can be described thus: Synergistic antiatherosclerotic activity in hypercholesterolemic ApoE-/- mouse model assessed as effect on plasma TG level at 5 to 15 mg/kg, ip administered daily for 3 weeks in presence of SIMV. As to conditions: dose 5-15 mg/kg. It counts as functional, organism-based.
Test [8] concerns Mus musculus. Put plainly: Synergistic antiatherosclerotic activity in hypercholesterolemic ApoE-/- mouse model assessed as effect on plasma LDH level at 5 to 15 mg/kg, ip administered daily for 3 weeks in presence of SIMV. As to conditions: dose 5-15 mg/kg. It counts as functional, organism-based.
In test [9] the test system is Mus musculus. Put plainly: Synergistic antiatherosclerotic activity in hypercholesterolemic ApoE-/- mouse model assessed as effect on plasma GSH level at 5 to 15 mg/kg, ip administered daily for 3 weeks in presence of SIMV. Particulars: dose 5-15 mg/kg. It counts as functional, organism-based.
The subject of test [10] is Mus musculus. Put plainly: Synergistic antiatherosclerotic activity in hypercholesterolemic ApoE-/- mouse model assessed as effect on plasma MDA level at 5 to 15 mg/kg, ip administered daily for 3 weeks in presence of SIMV. It counts as functional, organism-based. As to conditions: dose 5-15 mg/kg.
Test [11] deals with Mus musculus. Put plainly: Synergistic antiatherosclerotic activity in hypercholesterolemic ApoE-/- mouse model assessed as decrease in vacuolization in liver at 5 to 15 mg/kg, ip administered daily for 3 weeks in presence of SIMV by H and E staining based analysis. It counts as functional, organism-based. Particulars: dose 5-15 mg/kg.
Test [12] relates to Mus musculus. Put plainly: Synergistic antiatherosclerotic activity in hypercholesterolemic ApoE-/- mouse model assessed as decrease in vacuolization in liver at 5 to 15 mg/kg, ip administered daily for 3 weeks in presence of SIMV by Masson staining based analysis. It counts as functional, organism-based. As to conditions: dose 5-15 mg/kg.
In test [13] the test system is Mus musculus. Put plainly: Synergistic antiatherosclerotic activity in hypercholesterolemic ApoE-/- mouse model assessed as decrease in liver fibrosis at 5 to 15 mg/kg, ip administered daily for 3 weeks in presence of SIMV by H and E staining based analysis. It counts as functional, organism-based. Particulars: dose 5-15 mg/kg.
Test [14] has as its system Mus musculus. The test can be described thus: Synergistic antiatherosclerotic activity in hypercholesterolemic ApoE-/- mouse model assessed as decrease in liver fibrosis at 5 to 15 mg/kg, ip administered daily for 3 weeks in presence of SIMV by Masson staining based analysis. It counts as functional, organism-based. Particulars: dose 5-15 mg/kg.
A further test relates to Liver. Put plainly: In vivo induction of PCSK9 degradation in liver of hypercholesterolemic ApoE-/- mouse model at administered intraperitoneally daily for 3 weeks in presence of SIMV by Western blot analysis. It counts as functional, organism-based. Particulars: dose 5-15 mg/kg, route ip. For orientation: In western blotting, separated proteins are transferred to a membrane and probed.

Test [15] relates to Mus musculus. The test can be described thus: Synergistic antiatherosclerotic activity in hypercholesterolemic ApoE-/- mouse model assessed as increase in liver LDLR at 5 to 15 mg/kg, ip administered daily for 3 weeks in presence of SIMV by Western blot analysis. It counts as functional, organism-based. Particulars: dose 5-15 mg/kg.
Test [16] deals with Mus musculus. Put plainly: Synergistic antiatherosclerotic activity in hypercholesterolemic ApoE-/- mouse model assessed as […] in liver IL-1beta level at 5 to 15 mg/kg, ip administered daily for 3 weeks in presence of SIMV by Western blot analysis. It counts as functional, organism-based. As to conditions: dose 5-15 mg/kg.
In test [17] the test system is Mus musculus. The test can be described thus: Synergistic antiatherosclerotic activity in hypercholesterolemic ApoE-/- mouse model assessed as increase in liver LDL uptake capacity at 5 to 15 mg/kg, ip administered daily for 3 weeks in presence of SIMV by Western blot analysis. It counts as functional, organism-based. Particulars: dose 5-15 mg/kg.
Test [18] has as its system Mus musculus. The test can be described thus: Synergistic antiatherosclerotic activity in hypercholesterolemic ApoE-/- mouse model assessed as decrease in liver oxidative stress at 5 to 15 mg/kg, ip administered daily for 3 weeks in presence of SIMV. It counts as functional, organism-based. Particulars: dose 5-15 mg/kg.
The test system of test [19] is Mus musculus. The test can be described thus: Synergistic antiatherosclerotic activity in hypercholesterolemic ApoE-/- mouse model assessed as decrease in liver cholesterol level at 5 to 15 mg/kg, ip administered daily for 3 weeks in presence of SIMV. It counts as functional, organism-based. As to conditions: dose 5-15 mg/kg.
Test [20] deals with Mus musculus. Put plainly: Synergistic antiatherosclerotic activity in hypercholesterolemic ApoE-/- mouse model assessed as decrease in plaque area in aortic arch at 5 to 15 mg/kg, ip administered daily for 3 weeks in presence of SIMV by Aortic oil red O staining based analysis. It counts as functional, organism-based. Particulars: dose 5-15 mg/kg.
In test [21] the test system is Mus musculus. The test can be described thus: Antiatherosclerotic activity in hypercholesterolemic ApoE-/- mouse model assessed as decrease in plaque area in […] at 5 to 15 mg/kg/day, ip measured after 21 days. It counts as functional, organism-based. Particulars: dose 5-15 mg/kg/day, time 21.0 day.
The next test deals with Huh-7. Particulars: Homo sapiens, dose <= 100.0 nM.

The source made the active and inactive calls. The calls are words filed in the database; no cut-off is given here.

Description for Huh-7: Inhibition of oxidative stress injury in PA/LPS-stimulated human Huh-7 cells assessed as decrease in triglyceride level upto 100 nM

Take `COc1cc2c(cc1OCCCCN1C(=O)/C(=C\c3cc(Br)c(O)c(OC)c3)c3cc(Br)ccc31)C(C)(CC(=O)Nc1nccs1)NCC2` (stereo not drawn): the outcome in the test with Mus musculus [1], with Mus musculus [2], with Mus musculus [3], in the test on Mus musculus [4], in the test on Mus musculus [5] and with Mus musculus [7] was Active. Also, the outcome in the test with Mus musculus [8], in the test with Mus musculus [9], in the test on Mus musculus [10], in the test on Mus musculus [11], in the test with Mus musculus [12] and in the test on Mus musculus [13] was Active. In addition, the result in the test on Mus musculus [14], with Mus musculus [15], in the test on Mus musculus [16], with Mus musculus [17], with Mus musculus [18] and in the test with Mus musculus [19] was Active. Also, the outcome with Mus musculus [20] and in the test on Mus musculus [21] was Active. Besides, the results for the Activity entry in the test on Mus musculus [6] and with Liver were “<=47.36%” and “Dose-Dependent Effect”, respectively. The inhibition result in the test on Huh-7 was “Active”.
